These results are taken from patent publication US8202872B2, “Pyrazole derivatives as sigma receptor inhibitors” (Laboratorios del Dr. Esteve, S.A., priority 2006, dated 2012).

One series has as its target T1, σ1-receptor (Cavia porcellus, UniProt Q60492).
T1 construct: guinea pig brains were homogenized; from tissue; host or cells: guinea pig brain membranes
Description: Sigma-1 receptor binding assay, [3H](+)-pentazocine, brain membranes. The conditions noted are these: guinea pig brain membranes; for % Binding σ1 10^−7M: compound at 10^−7 M; for % Binding σ1 10^−7M / % Binding σ1 10^−8M: [3H](+)-pentazocine 0.5 nM; for % Binding σ1 10^−8M: compound at 10^−8 M; for Ki: Sigma-1 receptor, [3H](+)-pentazocine. How it is done:
Brain membrane preparation and binding assays for the σ1-receptor were performed as described (DeHaven-Hudkins et al., 1992) with some modifications. In brief, guinea pig brains were homogenized in 10 vols. (w/v) of Tris-HCl 50 mM 0.32 M sucrose, pH 7.4, with a Kinematica Polytron PT 3000 at 15000 r.p.m. for 30 s. The homogenate was centrifuged at 1000 g for 10 min at 4° C. and the supernatants collected and centrifuged again at 48000 g for 15 min at 4° C. The pellet was resuspended in 10 volumes of Tris-HCl buffer (50 mM, pH 7.4), incubated at 37° C. for 30 min, and centrifuged at 48000 g for 20 min at 4° C. Following this, the pellet was resuspended in fresh Tris-HCl buffer (50 mM, pH 7.4) and stored on ice until use.
Each assay tube contained 10 μL of [^3H](+)-pentazocine (final concentration of 0.5 nM), 900 μL of the tissue suspension to a final assay volume of 1 mL and a final tissue concentration of approximately 30 mg tissue net weight/mL. Non-specific binding was defined by addition of a final concentration of 1 μM haloperidol. All tubes were incubated at 37° C. for 150 min before termination of the reaction by rapid filtration over Schleicher & Schuell GF 3362 glass fibre filters [previously soaked in a solution of 0.5% polyethylenimine for at least 1 h]. Filters were then washed with four times with 4 mL of cold Tris-HCl buffer (50 mM, pH 7.4). Following addition of scintillation cocktail, the samples were allowed to equilibrate overnight. The amount of bound radioactivity was determined by liquid scintillation spectrometry using a Wallac Winspectral 1414 liquid scintillation counter. Protein concentrations were determined by the method of Lowry et al. (1951).

The test system of series [1] is capsaicin-induced allodynia. Description: Von Frey filaments in a model of capsaicin-induced allodynia. The class given is in vivo. More on the design: dose or concentration left out as unconfirmed. The conditions noted are these: mice; capsaicin injected into paw; mechanical stimulus (von Frey). The procedure:
In-Vivo-Experiments Using Von Frey Filaments in a Model of Capsaicine—Induced Allodynia:
This model is described in detail in the experimental part of WO 2006/010587 A1, examples 1 and 2, the description being included here by reference. Capsaicin is thereby injected into experimental animals to produce acute pain followed by allodynia.
Briefly after habituation mice were first treated with the test-compound (or not in controls). Then capsaicin (1% DMSO) is injected into their paw resulting in developing pain in the effected paw. The effected paw is then treated with a mechanical stimulus and the latency time before the paw is withdrawn is measured.

Counter-ions that a name gives are not always drawn.

T1 sequence (Q60492 whole entry): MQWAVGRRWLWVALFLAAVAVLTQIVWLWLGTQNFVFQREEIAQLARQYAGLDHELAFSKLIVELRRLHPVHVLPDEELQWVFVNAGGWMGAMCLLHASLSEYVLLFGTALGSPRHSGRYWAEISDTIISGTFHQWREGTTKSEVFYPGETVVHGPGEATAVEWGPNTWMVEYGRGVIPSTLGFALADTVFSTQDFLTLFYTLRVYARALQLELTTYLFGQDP

On to `CCOC(=O)N1CCN(CCOc2cc(C)n(-c3ccc(Cl)c(Cl)c3)n2)CC1` [Example 3, Ethyl 4-{2-[1-(3,4-dichlorophenyl)-5-methyl-1H-pyrazol-3-yloxy]ethyl}piperazine carboxylate], for which, on σ1-receptor, the “% Binding σ1 10^−7M” value was 99.5% and the “% Binding σ1 10^−8M” value was 58.4%.
Consider `CC(=O)C1CCN(CCOc2ccn(-c3ccc(Cl)cc3)n2)CC1.O=C(O)C(=O)O` [Example 8, 1-(1-(2-(1-(4-Chloro-phenyl)-1H-pyrazol-3-yloxy)ethyl)piperidin-4-yl)ethanone oxalate], for which the melting point lay within 150 to 153 °C. This compound came in with a Ki at σ1-receptor of 1.3 nM.
As to `CC(=O)N1CCN(CCOc2nn(-c3ccc(Cl)c(Cl)c3)c(C)c2C)CC1.O=C(O)C(=O)O` (hydrate or solvate) [Example 12, 1-(4-(2-(1-(3,4-Dichlo-rophenyl)-4,5-dimethyl-1H-pyrazol-3-yloxy)ethyl)piperazin-1-yl)ethanone oxalate], the melting point fell in the range of 180 to 184 °C.
As for `CC(=O)C1CCN(CCOc2ccn(-c3ccc(Cl)c(Cl)c3)n2)CC1.O=C(O)C(=O)O` [Example 5, 1-{1-[2-(1-(3,4-Dichlorophenyl)-1H-pyrazol-3-yloxy)ethyl]piperidin-4-yl}ethanone oxalate], the melting point fell in the range of 98 to 100 °C. The compound also yielded an inhibition constant (Ki) on σ1-receptor of 1.3 ± 0.4 nM.
In the case of `CC(=O)C1CCN(CCOc2ccn(-c3ccc(Cl)cc3Cl)n2)CC1` [Example 7, 1-(1-[2-{1-(2.4-Dichlo-rophenyl)-1H-pyrazol-3-yloxy}ethyl]piperi-din-4-yl)ethanone oxalate], the inhibitory constant (Ki) on σ1-receptor turned out to be 1.5 nM.
`CC(=O)N1CCN(CCOc2ccn(-c3ccc(Cl)cc3Cl)n2)CC1.O=C(O)C(=O)O` [Example 11, 1-(4-(2-(1-(2,4-Dichlo-rophenyl)-1H-pyrazol-3-yloxy)ethyl)piperazin-1-yl)ethanone oxalate] gave a melting point of 156 to 158 °C.
In the case of `CC(=O)N1CCN(CCOc2cc(C)n(-c3ccc(Cl)c(Cl)c3)n2)CC1` [Example 4, 1-(4-(2-(1-(3,4-dichlorophenyl)-5-methyl-1H-pyrazol-3-yloxy)ethyl)piperazin-1-yl)ethanone], at σ1-receptor, the “% Binding σ1 10^−7M” value was 99.4% and the “% Binding σ1 10^−8M” value is 82.5%.
Turning to `Cc1cc(OCCN2CCC(N)C2)nn1-c1ccc(Cl)c(Cl)c1` (stereo not drawn) [Example 2, 1-{2-[1-(3,4-Dichlorophenyl)-5-methyl-1H-pyrazol-3-yloxy]ethyl}pyrrolidin-3-amine], at σ1-receptor, the “% Binding σ1 10^−7M” value is 90.7% and the “% Binding σ1 10^−8M” value was 53.2%.
`CC(=O)N1CCN(CCCCOc2cc(C)n(-c3ccc(Cl)c(Cl)c3)n2)CC1` [Example 13, 1-(4-{4-[1-(3,4-Dichloro-phenyl)-5-methyl-1H-pyrazol-3-yloxy]-butyl}-piperazin-1-yl)-ethanone] came in with a melting point of 147 to 150 °C.
In turn, `CC(=O)C1CCN(CCOc2cc(C)n(-c3ccc(Cl)c(Cl)c3)n2)CC1.O=C(O)C(=O)O` [Example 9, 1-(1-(2-(1-(3,4-Dichlo-rophenyl)-5-methyl-1H-pyrazol-3-yloxy)ethyl)piperidin-4-yl)ethanone oxalate] showed a melting point of 158 to 165 °C. Besides, the Ki on σ1-receptor was determined as 8.3 nM.
`CC(=O)N1CCN(CCCCOc2nn(-c3ccc(Cl)c(Cl)c3)c(C)c2C)CC1.O=C(O)C(=O)O` [Example 10, 1-(4-(4-(1-(3,4-Dichlo-rophenyl)-4,5-dimethyl-1H-pyrazol-3-yloxy)butyl)piperazin-1-yl)ethanone oxalate] showed a melting point of 186 to 188 °C.
The compound `Cc1cc(OCCN2CCC(n3cnc4cccnc43)CC2)nn1-c1ccc(Cl)c(Cl)c1` [Example 1, 3-{1-[2-(1-(3,4-Dichlorophenyl)-5-methyl-1H-pyrazol-3-yloxy)ethyl]piperidin-4-yl}-3H-imidazo[4,5-b]pyridine] gave a melting point of 104 to 107 °C. For the same compound, at σ1-receptor, the “% Binding σ1 10^−7M” value amounted to 94.4% and the “% Binding σ1 10^−8M” value is 49.4%.
Turning to `CC(=O)N1CCN(CCOc2ccn(-c3ccc(Cl)c(Cl)c3)n2)CC1.O=C(O)C(=O)O` [Example 6, 1-{4-[2-(1-(3,4-Dichlo-rophenyl)-1H-pyrazol-3-yloxy)ethyl]pipera-zin-1-yl}ethanone oxalate], the melting point lay within 206 to 210 °C. At σ1-receptor, this compound showed a Ki of 4.2 nM. In addition, the analgesia in series [1] is on record as 77%.
For `CC(=O)C1CCN(CCOc2ccn(-c3ccc(Cl)cc3Cl)n2)CC1.O=C(O)C(=O)O` (hydrate or solvate) [Example 7, 1-(1-[2-{1-(2.4-Dichlo-rophenyl)-1H-pyrazol-3-yloxy}ethyl]piperi-din-4-yl)ethanone oxalate], the melting point lay in the range of 137 to 140 °C.

One may read the Ki as a dissociation constant, usually derived from enzyme kinetics or from competition with a known ligand. As a reminder, the melting point is the temperature of the solid-liquid transition.
